Assay results reported in patent US7935702B2, “Substituted biaryl quinolin-4-ylamine analogues” (Neurogen Corporation, priority 2004, dated 2011).

molecular target: T1, human capsaicin receptor (Homo sapiens, UniProt Q8NER1); assay: Calcium mobilization assay, determination of antagonist activity (Example 6); assay type: cell-based; conditions: Table I; IC50 determined as described in Example 6; read-out: IC50
T1 construct: expressed in transfected cells
Procedure: A cDNA encoding full length human capsaicin receptor (SEQ ID NO:1, 2 or 3 of U.S. Pat. No. 6,482,611) is subcloned in the plasmid pBK-CMV (Stratagene, La Jolla, Calif.) for recombinant expression in mammalian cells.
Human embryonic kidney (HEK293) cells are transfected with the pBK-CMV expression construct encoding the full length human capsaicin receptor using standard methods. The transfected cells are selected for two weeks in media containing G418 (400 μg/ml) to obtain a pool of stably transfected cells. Independent clones are isolated from this pool by limiting dilution to obtain clonal stable cell lines for use in subsequent experiments.
This Example illustrates representative calcium mobilization assays for use in evaluating test compounds for agonist and antagonist activity.
Cells transfected with expression plasmids (as described in Example 4) and thereby expressing human capsaicin receptor are seeded and grown to 70-90% confluency in FALCON black-walled, clear-bottomed 96-well plates (#3904, BECTON-DICKINSON, Franklin Lakes, N.J.). The culture medium is emptied from the 96 well plates and FLUO-3 AM calcium sensitive dye (Molecular Probes, Eugene, Oreg.) is added to each well (dye solution: 1 mg FLUO-3 AM, 440 μL DMSO and 440 μl 20% pluronic acid in DMSO, diluted 1:250 in Krebs-Ringer HEPES (KRH) buffer (25 mM HEPES, 5 mM KCl, 0.96 mM NaH2PO4, 1 mM MgSO4, 2 mM CaCl2, 5 mM glucose, 1 mM probenecid, pH 7.4), 50 μl diluted solution per well). Plates are covered with aluminum foil and incubated at 37° C. for 1-2 hours in an environment containing 5% CO2. After the incubation, the dye is emptied from the plates, and the cells are washed once with KRH buffer, and resuspended in KRH buffer.
To measure the ability of a test compound to agonize or antagonize a calcium mobilization response in cells expressing capsaicin receptors to capsaicin or other vanilloid agonist, the EC50 of the agonist capsaicin is first determined. An additional 20 μl of KRH buffer and 1 μl DMSO is added to each well of cells, prepared as described above. 100 μl capsaicin in KRH buffer is automatically transferred by the FLIPR instrument to each well. Capsaicin-induced calcium mobilization is monitored using either FLUOROSKAN ASCENT (Labsystems; Franklin, Mass.) or FLIPR (fluorometric imaging plate reader system; Molecular Devices, Sunnyvale, Calif.) instruments. Data obtained between 30 and 60 seconds after agonist application are used to generate an 8-point concentration response curve, with final capsaicin concentrations of 1 nM to 3 μM. KALEIDAGRAPH software (Synergy Software, Reading, Pa.) is used to fit the data to the equation: y=a*(1/(1+(b/x)^c)) to determine the 50% excitatory concentration (EC50) for the response. In this equation, y is the maximum fluorescence signal, x is the concentration of the agonist or antagonist (in this case, capsaicin), a is the Emax, b corresponds to the EC50 value and c is the Hill coefficient. Determination of Agonist Activity
Test compounds are dissolved in DMSO, diluted in 20 μl KRH buffer so that the final concentration of test compounds in the assay well is between 1 μM and 5 μM, and added to cells prepared as described above. The 96 well plates containing prepared cells and test compounds are incubated in the dark, at room temperature for 0.5 to 6 hours. It is important that the incubation not continue beyond 6 hours. Just prior to determining the fluorescence response, 100 μl capsaicin in KRH buffer at twice the EC50 concentration determined as described above is automatically added by the FLIPR instrument to each well of the 96 well plate for a final sample volume of 200 μl and a final capsaicin concentration equal to the EC50. The final concentration of test compounds in the assay wells is between 1 μM and 5 μM. […]

T1 sequence (Q8NER1 whole entry): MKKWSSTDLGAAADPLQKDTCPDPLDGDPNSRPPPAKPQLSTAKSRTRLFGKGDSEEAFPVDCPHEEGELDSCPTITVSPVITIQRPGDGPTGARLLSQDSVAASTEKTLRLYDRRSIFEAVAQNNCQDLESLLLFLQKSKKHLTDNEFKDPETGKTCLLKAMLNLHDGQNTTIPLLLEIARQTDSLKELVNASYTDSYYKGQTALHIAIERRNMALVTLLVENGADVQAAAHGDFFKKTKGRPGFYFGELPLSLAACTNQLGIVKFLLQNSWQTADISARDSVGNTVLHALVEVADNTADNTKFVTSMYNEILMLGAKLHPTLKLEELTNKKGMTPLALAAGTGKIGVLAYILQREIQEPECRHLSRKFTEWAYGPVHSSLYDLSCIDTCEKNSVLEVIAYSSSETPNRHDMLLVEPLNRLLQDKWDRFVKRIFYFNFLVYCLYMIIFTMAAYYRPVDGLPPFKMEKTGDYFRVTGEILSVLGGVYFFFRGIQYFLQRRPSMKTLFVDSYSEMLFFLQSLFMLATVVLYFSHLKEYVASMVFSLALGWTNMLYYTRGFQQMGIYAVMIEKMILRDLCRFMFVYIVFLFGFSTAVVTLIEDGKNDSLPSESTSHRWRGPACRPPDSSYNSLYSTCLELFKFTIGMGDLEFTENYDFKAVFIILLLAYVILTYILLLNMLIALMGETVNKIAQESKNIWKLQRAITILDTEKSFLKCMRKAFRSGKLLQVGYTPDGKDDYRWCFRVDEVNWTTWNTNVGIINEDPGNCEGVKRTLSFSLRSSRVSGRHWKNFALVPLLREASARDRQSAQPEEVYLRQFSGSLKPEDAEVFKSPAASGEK

IC50, < 1000 nM:
CCCCN(C)CCNc1cc(C(F)(F)F)c(-c2cnc3c(Nc4ccc(C(F)(F)F)cn4)ccnc3n2)nn1 [compound 70, N-butyl-N-methyl-N′-[5-(trifluoromethyl)-6-(8-{[5-(trifluoromethyl)pyridin-2-yl]amino}pyrido[2,3-b]pyrazin-3-yl)pyridazin-3-yl]ethane-1,2-diamine]
CC(C)N1CCN(c2cc(C(F)(F)F)c(-c3cnc4c(Nc5ccc(C(F)(F)F)cn5)ccnc4n3)nn2)CC1 [compound 75, 3-[6-(4-isopropylpiperazin-1-yl)-4-(trifluoromethyl)-pyridazin-3-yl]-N-[5-(trifluoromethyl)pyridin-2-yl]pyrido[2,3-b]pyrazin-8-amine]
CCN(CC)C1CCN(c2cc(C(F)(F)F)c(-c3cnc4c(Nc5ccc(C(F)(F)F)cn5)ccnc4n3)nn2)CC1 [compound 80]
CCCN(CCC)C1CCN(c2cc(C(F)(F)F)c(-c3cnc4c(Nc5ccc(C(F)(F)F)cn5)ccnc4n3)nn2)CC1 [compound 81, 3-{6-[4-(dipropylamino)-piperidin-1-yl]-4-(trifluoro-methyl)pyridazin-3-yl}-N-[5-(trifluoromethyl)pyridin-2-yl]pyrido[2,3-b]pyrazin-8-amine]
CCCN(CC1CC1)C1CCN(c2cc(C(F)(F)F)c(-c3cnc4c(Nc5ccc(C(F)(F)F)cn5)ccnc4n3)nn2)CC1 [compound 87, 3-[6-{4-[(cyclopropylmethyl)-(propyl)amino]piperidin-1-yl}-4-(trifluoromethyl)-pyridazin-3-yl]-N-[5-(trifluoromethyl)pyridin-2-yl]-pyrido[2,3-b]pyrazin-8-amine]
CN(C)CCCN(C)c1cc(C(F)(F)F)c(-c2cnc3c(Nc4ccc(C(F)(F)F)cn4)ccnc3n2)nn1 [compound 88, N,N,N′-trimethyl-N′-[5-(trifluoromethyl)-6-(8-{[5-(trifluoromethyl)pyridin-2-yl]amino}pyrido[2,3-b]pyrazin-3-yl)pyridazin-3-yl]propane-1,3-diamine]
CCN(C)CCN(CC)c1cc(C(F)(F)F)c(-c2cnc3c(Nc4ccc(C(F)(F)F)cn4)ccnc3n2)nn1 [compound 91, N,N′-diethyl-N-methyl-N′-[5-(trifluoromethyl)-6-(8-{[5-(trifluoromethyl)pyridin-2-yl]amino}pyrido[2,3-b]pyrazin-3-yl)pyridazin-3-yl]ethane-1,2-diamine]
CC(C)CNc1cc(C(F)(F)F)c(-c2cnc3c(Nc4ccc(C(F)(F)F)cn4)ccnc3n2)nn1 [compound 99, 3-[6-(isobutylamino)-4-(trifluoromethyl)pyridazin-3-yl]-N-[5-(trifluoromethyl)-pyridin-2-yl]pyrido[2,3-b]pyrazin-8-amine]
FC(F)(F)c1ccc(Nc2ccnc3nc(-c4nnc(NC5CC5)cc4C(F)(F)F)cnc23)nc1 [compound 104, 3-[6-(cyclopropylamino)-4-(trifluoromethyl)pyridazin-3-yl]-N-[5-(trifluoromethyl)-pyridin-2-yl]pyrido[2,3-b]pyrazin-8-amine]
CCC(CC)Nc1cc(C(F)(F)F)c(-c2cnc3c(Nc4ccc(C(F)(F)F)cn4)ccnc3n2)nn1 [compound 115, 3-{6-[(1-ethylpropyl)amino]-4-(trifluoromethyl)pyridazin-3-yl}-N-[5-(trifluoromethyl)-pyridin-2-yl]pyrido[2,3-b]pyrazin-8-amine]
C[C@@H](O)CNc1cc(C(F)(F)F)c(-c2cnc3c(Nc4ccc(C(F)(F)F)cn4)ccnc3n2)nn1 [compound 125, (R)-1-{[5-(trifluoromethyl)-6-(8-{[5-(trifluoromethyl)-pyridin-2-yl]amino}-pyrido[2,3-b]pyrazin-3-yl)pyridazin-3-yl]amino}propan-2-ol]
C[C@H](O)CNc1cc(C(F)(F)F)c(-c2cnc3c(Nc4ccc(C(F)(F)F)cn4)ccnc3n2)nn1 [compound 126, (S)-1-{[5-(trifluoromethyl)-6-(8-{[5-(trifluoromethyl)-pyridin-2-yl]amino}-pyrido[2,3-b]pyrazin-3-yl)pyridazin-3-yl]amino}propan-2-ol]
C=CCN(C)c1cc(C(F)(F)F)c(-c2cnc3c(Nc4ccc(C(F)(F)F)cn4)ccnc3n2)nn1 [compound 141, 3-{6-[allyl(methyl)amino]-4-(trifluoromethyl)pyridazin-3-yl}-N-[5-(trifluoromethyl)-pyridin-2-yl]pyrido[2,3-b]pyrazin-8-amine]
CC(C)CN(C)c1cc(C(F)(F)F)c(-c2cnc3c(Nc4ccc(C(F)(F)F)cn4)ccnc3n2)nn1 [compound 145, 3-{6-[isobutyl(methyl)amino]-4-(trifluoromethyl)pyridazin-3-yl}-N-[5-(trifluoromethyl)-pyridin-2-yl]pyrido[2,3-b]pyrazin-8-amine]
C=CCN(CC=C)c1cc(C(F)(F)F)c(-c2cnc3c(Nc4ccc(C(F)(F)F)cn4)ccnc3n2)nn1 [compound 150, 3-[6-(diallylamino)-4-(trifluoromethyl)pyridazin-3-yl]-N-[5-(trifluoromethyl)-pyridin-2-yl]pyrido[2,3-b]pyrazin-8-amine]
CCCCN(CC)c1cc(C(F)(F)F)c(-c2cnc3c(Nc4ccc(C(F)(F)F)cn4)ccnc3n2)nn1 [compound 152, 3-{6-[butyl(ethyl)amino]-4-(trifluoromethyl)pyridazin-3-yl}-N-[5-(trifluoromethyl)-pyridin-2-yl]pyrido[2,3-b]pyrazin-8-amine]
CCCN(CC1CC1)c1cc(C(F)(F)F)c(-c2cnc3c(Nc4ccc(C(F)(F)F)cn4)ccnc3n2)nn1 [compound 153, 3-{6-[(cyclopropylmethyl)-(propyl)amino]-4-(trifluoro-methyl)pyridazin-3-yl}-N-[5-(trifluoromethyl)pyridin-2-yl]pyrido[2,3-b]pyrazin-8-amine]
CN(C)CC1CCCCN1c1cc(C(F)(F)F)c(-c2cnc3c(Nc4ccc(C(F)(F)F)cn4)ccnc3n2)nn1 (stereo not shown) [compound 164, 3-[6-{2-[(dimethylamino)-methyl]piperidin-1-yl}-4-(trifluoromethyl)pyridazin-3-yl)-N-[5-(trifluoromethyl)-pyridin-2-yl]pyrido[2,3-b]pyrazin-8-amine]
O[C@@H]1CCN(c2cc(C(F)(F)F)c(-c3cnc4c(Nc5ccc(C(F)(F)F)cn5)ccnc4n3)nn2)C1 [compound 170, (R)-1-[5-(trifluoromethyl)-6-(8-{[5-(trifluoromethyl)-pyridin-2-yl]amino}-pyrido[2,3-b]pyrazin-3-yl)-pyridazin-3-yl]pyrrolidin-3-ol]
CCN(CCCO)c1cc(C(F)(F)F)c(-c2cnc3c(Nc4ccc(C(F)(F)F)cn4)ccnc3n2)nn1 [compound 177, 3-{ethyl[5-(trifluoromethyl)-6-(8-{[5-(trifluoromethyl)-pyridin-2-yl]amino}-pyrido[2,3-b]pyrazin-3-yl)-pyridazin-3-yl]amino}propan-1-ol]
CC(C)N(CCCO)c1cc(C(F)(F)F)c(-c2cnc3c(Nc4ccc(C(F)(F)F)cn4)ccnc3n2)nn1 [compound 178, 3-{isopropyl[5-(trifluoro-methyl)-6-(8-{[5-(trifluoro-methyl)pyridin-2-yl]amino}-pyrido[2,3-b]pyrazin-3-yl)pyridazin-3-yl]amino}propan-1-ol]
OC1CN(c2cc(C(F)(F)F)c(-c3cnc4c(Nc5ccc(C(F)(F)F)cn5)ccnc4n3)nn2)C1 [compound 179, 1-[5-(trifluoromethyl)-6-(8-{[5-(trifluoromethyl)pyridin-2-yl]amino}pyrido[2,3-b]pyrazin-3-yl)pyridazin-3-yl]azetidin-3-ol]
